ChEMBL document CHEMBL5053556, “Design, Synthesis, and Biological Evaluation of a Novel Series of Teriflunomide Derivatives as Potent Human Dihydroorotate Dehydrogenase Inhibitors for Malignancy Treatment” (J Med Chem, 2021)

What was measured:
[1] = test system: Raji; assay: Antiproliferative activity against human Raji cells assessed as cell growth inhibition at 0.4 uM incubated for 96 hrs by MTT assay; type: functional; design: scale not given: the % may be the effect or the level left
[2] = test system: Raji; assay: Antiproliferative activity against human Raji cells assessed as cell growth inhibition at 0.06 uM preincubated with uridine for 24 hrs followed by compound addition and measured after 72 hrs by MTT assay; type: functional; design: scale not given: the % may be the effect or the level left
[3] = Acute toxicity in BALB/c mouse assessed as effect on liver at 400 mg/kg, po measured on day 14 by H and E staining based assay; type: organism-based; settings: in vivo, 336 h, time 14 day
[4] = test system: SU-DHL-6; assay: Antiproliferative activity against human SU-DHL-6 cells assessed as cell growth inhibition incubated for 96 hrs by MTT assay; type: functional, cell-based; settings: SU-DHL-6, 96 h
[5] = Drug distribution in NOD-SCID mouse tumor at 40 mg/kg, po administered for 25 days by LC-MS analysis; type: ADME, organism-based, Neoplasm; settings: in vivo, 600 h, time 25 day
[6] = test system: Raji; assay: Induction of cell cycle arrest in human Raji cells assessed as accumulation of cells at S phase at 0.5 uM after 24 hrs by propidium iodide staining based flow cytometric analysis (reference value: 45.7%); type: functional
[7] = test system: Raji; assay: Induction of cell cycle arrest in human Raji cells assessed as accumulation of cells at S phase at 0.125 uM after 24 hrs by propidium iodide staining based flow cytometric analysis (reference value: 45.7%); type: functional
[8] = Acute toxicity in BALB/c mouse assessed effect on body weight at 400 mg/kg, po; type: organism-based; settings: in vivo
[9] = test system: Raji; assay: Antiproliferative activity against human Raji cells assessed as cell growth inhibition incubated for 96 hrs by MTT assay; type: functional, cell-based
[10] = test system: Daudi; assay: Antiproliferative activity against human Daudi cells assessed as cell growth inhibition incubated for 96 hrs by MTT assay; type: functional, cell-based
[11] = test system: SUD4; assay: Antiproliferative activity against human SU-DHL-4 cells assessed as cell growth inhibition incubated for 96 hrs by MTT assay; type: functional, cell-based; settings: SU-DHL-4, 96 h
[12] = test system: Mus musculus; assay: Toxicity in NOD-SCID mouse xenografted with human Raji cells assessed as change in ALT level at 40 mg/kg, po administered for 25 days; type: organism-based; settings: in vivo, 600 h, time 25 day

## C/C(O)=C(\C#N)C(=O)Nc1cc(O[C@@H](C)C(F)(F)F)c(C(=O)Nc2c(F)cccc2F)cc1F
[1]
  Activity: 64.5%
[2]
  Activity: 3.3%
[3]
  Activity: Non-Toxic
[4]
  IC50: 20 nM
[5]
  Drug uptake: Active
[6]
  Activity: 86.9%
[7]
  Activity: 64.4%
[8]
  Activity: Non-Toxic
[9]
  IC50: 7.7 nM
[10]
  IC50: 20 nM
[11]
  IC50: 20 nM
[12]
  Activity: Non-Toxic
